{
  "source": "paper PMC12030678",
  "about": "“Investigations of In Vitro Anti-Acetylcholinesterase, Anti-Diabetic, Anti-Inflammatory, and Anti-Cancer Efficacy of Garden Cress (Lepidium sativum Linn.) Seed Extracts, as Well as In Vivo Biochemical and Hematological Assays” (Pharmaceutics, 2025)",
  "key": {"[1]": {"assay": "DPPH radical scavenging activity", "protocol": "(§1) Antioxidant, scavenging, anti-Alzheimer, anti-diabetic, anti-arthritic, anti-inflammatory, cytotoxic, and enzymatic activities were assessed according to the proposed methods detailed in the Supplementary File. All biological activities were assessed in triplicate for all studied extracts. […]\nThe 1,1-Diphenyl-2-picryl-hydrazyl (DPPH) radical scavenging activities were evaluated using the method described by Rahman et al.. An antioxidant substance capable of donating a hydrogen atom to a solution containing DPPH- can reduce the stable free radical, causing the solution to change color from violet to pale yellow. The remaining DPPH- radical was quantified by measuring the intensity of a light-purple colored DPPH methanol solution in the visible range at 518 nm using a spectroscopic method. Two milliliters of a DPPH solution (100 µM) in ethanol were mixed with 2 mL of the sample (at each concentration).\nThe reaction mixture for each concentration was thoroughly vortexed and then incubated in the dark at room temperature for 30 minutes. The absorbance was then measured spectrophotometrically at 518 nm against a blank (ethanol). For the control, 2 mL of ethanol was added instead of the sample and run simultaneously with the test. Ascorbic acid was used at the same concentrations as a positive control. Percent inhibition of the DPPH free radical was calculated. […]"}, "[2]": {"assay": "ABTS radical scavenging activity", "protocol": "as §1\nAn antioxidant substance capable of donating a hydrogen atom to a solution containing DPPH- can reduce the stable free radical, causing the solution to change color from violet to pale yellow. […]\nTwo milliliters of a DPPH […]\nsolution (100 µM) in ethanol were mixed with 2 mL of the sample (at each concentration). […]\nFor the control, 2 mL of ethanol was added instead of the sample and run simultaneously with the test. Ascorbic acid was used at the same concentrations as a positive control. […]\n(7 mM) and potassium persulfate solution (2.4 mM). The working solution was prepared by mixing the two stock solutions in equal quantities and allowing them to react at room temperature in a dark place for 14 hours. The solution was then diluted by mixing 1 mL of ABTS solution with 60 mL of methanol to obtain an absorbance of 0.706 ± 0.01 units at 734 nm using a spectrophotometer. […] The tested samples (at each concentration) were allowed to react with 1 mL of the ABTS solution, and the absorbance was taken at 734 nm after 7 minutes using a spectrophotometer. […]"}, "[3]": {"assay": "Total antioxidant capacity (TAC), phosphomolybdenum method", "settings": "in vitro total antioxidant capacity"}, "[4]": {"assay": "Iron reducing power (IRP)", "settings": "in vitro iron reducing power"}, "[5]": {"assay": "Nitric oxide (NO) radical scavenging activity", "protocol": "Antioxidant, scavenging, anti-Alzheimer, anti-diabetic, anti-arthritic, anti-inflammatory, cytotoxic, and enzymatic activities were assessed according to the proposed methods detailed in the Supplementary File. All biological activities were assessed in triplicate for all studied extracts."}, "[6]": {"molecular_target": "T1, 5-LOX enzyme (human recombinant) (Homo sapiens, UniProt P09917)", "T1 construct": "purchased Sigma-Aldrich 437996", "T1 sequence (P09917 1-674)": "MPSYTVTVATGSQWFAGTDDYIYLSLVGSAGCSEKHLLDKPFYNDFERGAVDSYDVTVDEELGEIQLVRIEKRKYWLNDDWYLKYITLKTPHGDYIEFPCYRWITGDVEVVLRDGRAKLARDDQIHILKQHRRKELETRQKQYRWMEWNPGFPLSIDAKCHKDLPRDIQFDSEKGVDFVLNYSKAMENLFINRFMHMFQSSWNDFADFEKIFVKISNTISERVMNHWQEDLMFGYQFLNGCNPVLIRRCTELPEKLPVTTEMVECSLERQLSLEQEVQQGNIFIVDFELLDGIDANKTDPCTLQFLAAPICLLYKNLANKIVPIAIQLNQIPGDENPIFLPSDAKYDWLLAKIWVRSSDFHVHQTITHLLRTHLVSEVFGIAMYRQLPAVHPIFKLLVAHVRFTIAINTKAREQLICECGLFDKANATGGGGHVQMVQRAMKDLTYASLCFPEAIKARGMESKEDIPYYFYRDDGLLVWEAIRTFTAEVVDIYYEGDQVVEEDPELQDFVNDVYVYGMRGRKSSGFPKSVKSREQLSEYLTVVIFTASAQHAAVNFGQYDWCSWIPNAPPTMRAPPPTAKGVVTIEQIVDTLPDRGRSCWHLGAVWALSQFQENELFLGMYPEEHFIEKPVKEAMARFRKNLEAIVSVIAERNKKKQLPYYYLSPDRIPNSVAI", "assay": "5-Lipoxygenase inhibition assay", "format": "biochemical", "settings": "inhibition at 100 µg/mL"}, "α-glucosidase enzyme": {"molecular_target": "α-glucosidase enzyme (Saccharomyces cerevisiae, UniProt P53341)", "sequence (P53341 whole entry)": "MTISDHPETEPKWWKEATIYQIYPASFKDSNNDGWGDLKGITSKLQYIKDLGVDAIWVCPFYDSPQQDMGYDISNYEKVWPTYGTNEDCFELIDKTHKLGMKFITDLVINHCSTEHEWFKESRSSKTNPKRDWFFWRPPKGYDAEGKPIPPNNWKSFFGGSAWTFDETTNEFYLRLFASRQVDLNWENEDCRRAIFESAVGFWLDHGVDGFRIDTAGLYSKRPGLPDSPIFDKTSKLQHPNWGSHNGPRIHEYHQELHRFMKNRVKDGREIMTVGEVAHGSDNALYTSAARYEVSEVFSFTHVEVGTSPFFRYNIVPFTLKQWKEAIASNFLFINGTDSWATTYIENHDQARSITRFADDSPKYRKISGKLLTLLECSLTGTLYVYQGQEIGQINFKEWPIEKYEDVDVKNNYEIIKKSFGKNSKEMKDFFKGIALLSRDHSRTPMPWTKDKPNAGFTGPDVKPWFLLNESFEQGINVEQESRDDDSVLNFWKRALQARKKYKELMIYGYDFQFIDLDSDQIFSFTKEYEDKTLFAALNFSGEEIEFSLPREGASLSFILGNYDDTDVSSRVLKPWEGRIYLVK", "assay": "α-Glucosidase inhibition (pNPG)", "format": "biochemical", "settings": "at 100 µg/mL"}, "α-amylase enzyme": {"molecular_target": "T2, α-amylase enzyme (Sus scrofa, UniProt P00690)", "T2 sequence (P00690 16-511)": "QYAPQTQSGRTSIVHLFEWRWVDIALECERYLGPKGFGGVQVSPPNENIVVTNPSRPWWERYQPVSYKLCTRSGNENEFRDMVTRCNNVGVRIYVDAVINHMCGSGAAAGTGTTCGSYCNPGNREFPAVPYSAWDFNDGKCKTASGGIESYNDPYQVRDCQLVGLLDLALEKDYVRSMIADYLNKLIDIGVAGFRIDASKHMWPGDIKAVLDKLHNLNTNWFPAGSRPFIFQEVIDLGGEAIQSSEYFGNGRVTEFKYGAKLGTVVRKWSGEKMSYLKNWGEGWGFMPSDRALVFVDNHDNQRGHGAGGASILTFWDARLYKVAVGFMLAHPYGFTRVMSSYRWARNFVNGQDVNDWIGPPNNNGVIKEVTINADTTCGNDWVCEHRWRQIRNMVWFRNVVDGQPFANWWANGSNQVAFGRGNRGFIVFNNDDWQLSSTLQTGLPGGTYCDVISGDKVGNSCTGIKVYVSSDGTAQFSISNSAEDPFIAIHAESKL", "assay": "α-Amylase inhibition (DNSA method)", "format": "biochemical", "settings": "at 100 µg/mL", "protocol": "Anti-Alzheimer's activity\nIn this study, we assessed the inhibition percentage of the acetylcholinesterase (AChE)\nThis assay involved calculating the inhibition percentage (%) of α-amylase enzyme using\nThe mixture was then left at\ntemperature and diluted with 5 mL of distilled water."}, "Bcl-2": {"test_system": "Bcl-2", "format": "cell-based, human", "protocol": "as §1\n(§2) Cytotoxic activity and Enzymatic Assay […]\n(§3) The cells were dispensed in a 96-well sterile […]\n(§4) different concentrations of 10 μL of each compound or doxorubicin (positive control, in DMSO) for 48 h in a serum free medium prior to the MTT assay. […]\nCorporation, following the manufacturer's instructions. Activities of Bcl-2 were measured using the Invitrogen Zymed Bcl-2 ELISA Kit (96 tests) from Invitrogen Corporation, following the manufacturer's instructions."}, "Caco-2 cells": {"test_system": "Caco-2 cells", "assay": "Cytotoxic activity, MTT assay, Caco-2", "format": "cell-based", "settings": "Homo sapiens, 48 h, read-out: IC50 (μg/mL) Caco-2", "protocol": "as §1\nCytotoxic activity and Enzymatic Assay\nIt will be assayed against human hepatocellular carcinoma (HepG-2), colon cancer (Caco-2), and lung cancer (A549) cells using 3-(4,5-dimethythiazol-2-yl)-2,5-diphenyl tetrazolium bromide (MTT) assay by determining the optical density (OD) at 570 nm according to the […]\nas §3\ndifferent concentrations of 10 μL of each compound or doxorubicin (positive control, in DMSO) for 48 h in a serum free medium prior to the MTT assay. Subsequently, the media were carefully removed, and 40 μL of MTT (2.5 mg/mL) was added to each well and then incubated for an additional 4 h. Purple formazan dye crystals were solubilized by the addition of 200 μL of DMSO. The absorbance was measured at 570 nm using a SpectraMax Paradigm Multi-Mode microplate reader. The relative cell viability was expressed as the mean percentage of viable cells relative to the untreated control cells. All experiments were conducted in triplicate. Percent of the cell-growth inhibition (%) and the IC50 was calculated using IC50 calculation software. […]"}, "caspase-3": {"test_system": "caspase-3", "format": "cell-based, human", "protocol": "as §1, §2, §3, §4\nActivities of caspase-3 were measured by enzyme-linked immunosorbent assay (ELISA) using the Invitrogen caspase-3 (Active) (human) ELISA kit (96 tests) from Invitrogen Corporation, following the manufacturer's instructions. […]"}},
  "data": [
    {"smiles": "O=C1O[C@H]([C@@H](O)CO)C(O)=C1O", "note": "[Ascorbic Acid]", "values": [
      {"measurement": "IC50 (µg/mL) DPPH", "setting": "[1]", "value": "4.29 ± 0.03", "unit": "µg/mL"},
      {"measurement": "Inhibition (%) DPPH", "setting": "[1]; at 100 µg/mL", "value": "66.50 ± 0.11", "unit": "%"},
      {"measurement": "IC50 (µg/mL) ABTS", "setting": "[2]", "value": "3.80 ± 0.04", "unit": "µg/mL"},
      {"measurement": "Inhibition (%) ABTS", "setting": "[2]; at 100 µg/mL", "value": "70.25 ± 0.11", "unit": "%"},
      {"measurement": "TAC (mg Gallic Acid/g)", "setting": "[3]", "value": "84.50 ± 0.13", "unit": "mg Gallic Acid/g"},
      {"measurement": "IRP", "setting": "[4]", "value": "76.75 ± 0.13", "unit": "µg/mL"},
      {"measurement": "IC50 (µg/mL) NO", "setting": "[5]", "value": "5.51 ± 0.02", "unit": "µg/mL"},
      {"measurement": "Inhibition (%) NO", "setting": "[5]; at 100 µg/mL", "value": "60.75 ± 0.11", "unit": "%"}
    ]},
    {"smiles": "CC(c1cc2ccccc2s1)N(O)C(N)=O", "note": "(stereo not drawn) [Zileuton]", "values": [
      {"measurement": "5-LOX (%)", "setting": "[6]", "value": "55.71 ± 0.11 (Zileuton) %"}
    ]},
    {"smiles": "C[C@H]1O[C@H](O[C@H]2[C@H](O)[C@@H](O)[C@@H](O[C@H]3[C@H](O)[C@@H](O)C(O)O[C@@H]3CO)O[C@@H]2CO)[C@H](O)[C@@H](O)[C@@H]1N[C@H]1C=C(CO)[C@@H](O)[C@H](O)[C@H]1O", "note": "(stereo partly drawn) [Acarbose]", "values": [
      {"measurement": "α-Glucosidase Inhibition (%)", "setting": "α-glucosidase enzyme", "value": "56.65 ± 0.10", "unit": "%"},
      {"measurement": "α-Amylase Inhibition (%)", "setting": "α-amylase enzyme", "value": "66.90 ± 0.10", "unit": "%"}
    ]},
    {"smiles": "COc1cccc2c1C(=O)c1c(O)c3c(c(O)c1C2=O)C[C@@](O)(C(=O)CO)C[C@@H]3O[C@H]1C[C@H](N)[C@H](O)[C@H](C)O1", "note": "[Doxorubicin]", "values": [
      {"measurement": "Bcl-2 (ng/mL) A549", "setting": "Bcl-2; treated A549 cells, DMSO control 12.58 ± 0.05", "value": "3.27 ± 0.01", "unit": "ng/mL"},
      {"measurement": "Bcl-2 (ng/mL) Caco-2", "setting": "Bcl-2; treated Caco-2 cells, DMSO control 5.74 ± 0.08", "value": "1.49 ± 0.02", "unit": "ng/mL"},
      {"measurement": "Bcl-2 (ng/mL) HepG-2", "setting": "Bcl-2; treated HepG-2 cells, DMSO control 11.15 ± 0.15", "value": "2.90 ± 0.04", "unit": "ng/mL"},
      {"measurement": "IC50", "setting": "Caco-2 cells", "value": 33.3, "unit": "µg/mL"},
      {"measurement": "Caspase-3 (pg/mL) A549", "setting": "caspase-3; treated A549 cells, DMSO control 88.67 ± 0.12", "value": "341.39 ± 0.46", "unit": "pg/mL"},
      {"measurement": "Caspase-3 (pg/mL) Caco-2", "setting": "caspase-3; treated Caco-2 cells, DMSO control 94.81 ± 0.14", "value": "365.02 ± 0.55", "unit": "pg/mL"},
      {"measurement": "Caspase-3 (pg/mL) HepG-2", "setting": "caspase-3; treated HepG-2 cells, DMSO control 108.79 ± 0.85", "value": "418.84 ± 3.27", "unit": "pg/mL"}
    ]}
  ]
}
